Test results reported in PubChem BioAssay (NCI).
Several values for one entry are separate records, joined by “and”; a condition that tells them apart may be missing. Identical values can stand only once.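 Following 48 hours of exposure in 96-well plates, responses at five concentrations were used to interpolate endpoints linearly. GI50: concentration for 50% inhibition of growth. The concentration for full growth arrest is given as TGI.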

Experiments:
Assay in all cases: inhibition of tumour cell growth, NCI panel, 48 h
786-0 renal = test system: 786-0 renal
ACHN renal = test system: ACHN renal
IGROV1 ovarian = test system: IGROV1 ovarian
NCI-H23 lung = test system: NCI-H23 lung
KM12 colon = test system: KM12 colon
RPMI-8226 leukemia = test system: RPMI-8226 leukemia
PC-3 prostate = test system: PC-3 prostate
UACC-257 melanoma = test system: UACC-257 melanoma
CAKI-1 renal = test system: CAKI-1 renal
UACC-62 melanoma = test system: UACC-62 melanoma

SMILES	TGI (786-0 renal)	TGI (ACHN renal)	TGI (IGROV1 ovarian)	TGI (NCI-H23 lung)	TGI (KM12 colon)	TGI (RPMI-8226 leukemia)	TGI (PC-3 prostate)	TGI (UACC-257 melanoma)	TGI (CAKI-1 renal)	GI50 (ACHN renal)	GI50 (NCI-H23 lung)	GI50 (RPMI-8226 leukemia)	GI50 (CAKI-1 renal)	TGI (UACC-62 melanoma)	GI50 (786-0 renal)	GI50 (IGROV1 ovarian)	GI50 (KM12 colon)	GI50 (PC-3 prostate)	GI50 (UACC-257 melanoma)	GI50 (UACC-62 melanoma)
Cn1c2ccc3cc2c(=S)c2cc(ccc21)OCCOCCOCCOCCOCCOCCO3	> 10 µM	> 10 µM	> 10 µM	> 10 µM	> 10 µM	> 10 µM	> 10 µM	> 10 µM	> 10 µM	–	–	–	–	–	–	–	–	–	–	–
CC1=C2C(=C[C@@](C)(CO)[C@@H]2O)C(=O)[C@](C)(O)C12CC2	0.0143 µM and 0.0638 µM	0.0878 µM	0.0583 µM	–	0.105 µM and 0.568 µM	6.09 µM and 12.3 µM	0.0661 µM and 0.0121 µM	0.0308 µM and 0.0229 µM	–	18.9 nM	300 nM	1150 nM	178 nM	0.0265 µM	–	–	–	–	–	–
C#CCn1c(=O)c2ccccc2n(CC#C)c1=O	> 10 µM	> 10 µM	> 10 µM	> 10 µM	> 10 µM	> 10 µM	> 10 µM	> 10 µM	> 10 µM	–	–	–	–	–	–	–	–	–	–	–
Cc1nnc(NC(=O)c2nc(S(=O)(=O)Cc3ccc(F)cc3)ncc2Cl)s1	15.5 µM	3.68 µM	19.1 µM	32.5 µM	37 µM	12.8 µM	22.9 µM	7.61 µM	3.24 µM	1940 nM	12500 nM	2210 nM	1780 nM	3.01 µM	4320 nM	4.87 µM	18.5 µM	10000 nM	2100 nM	1610 nM
CCCOc1cc2ccccc2cc1C(=O)Nc1nc(N)c2c(ccc3nccc32)[nH]1	1.56 µM	2.56 µM	2.89 µM	2.04 µM	1.53 µM	2.15 µM	2.22 µM	2.62 µM	3.31 µM	64.1 nM	209 nM	113 nM	620 nM	1.96 µM	50.9 nM	0.519 µM	0.0448 µM	49.2 nM	1210 nM	40.3 nM
COc1ccc(/C=N/NC(=O)c2cccc3cc[nH]c23)cc1O	> 100 µM	> 100 µM	> 100 µM	> 100 µM	> 100 µM	24.8 µM	> 100 µM	> 100 µM	> 49 µM	4190 nM	6570 nM	3380 nM	192 nM	> 35.1 µM	5130 nM	7.91 µM	0.883 µM	2050 nM	> 42800 nM	878 nM
C=C1C(=O)O[C@H]2[C@H]1CC/C(COC(=O)NCc1ccc(Cn3c(=O)sn(-c4ccc(OC)cc4)c3=O)cc1)=C\CC[C@@]1(C)O[C@@H]21	4.51 µM	3.27 µM	8.04 µM	9.9 µM	14 µM	4.52 µM	5.27 µM	4.34 µM	6.83 µM	1730 nM	2970 nM	2010 nM	2340 nM	3.84 µM	2050 nM	2.85 µM	3.75 µM	2190 nM	2030 nM	1860 nM
Nc1n[nH]c2cccc(C#Cc3cccc(C(=O)Nc4ccc(CN5CCOCC5)c(C(F)(F)F)c4)c3)c12	7.74 µM	9.96 µM	7.01 µM	11.3 µM	9.65 µM	5.62 µM	7.79 µM	10.6 µM	11.4 µM	2630 nM	2100 nM	1760 nM	3200 nM	3.52 µM	2790 nM	2.35 µM	2.81 µM	2160 nM	2410 nM	1120 nM
O=C(O)c1nc2nc(Cl)c(Cl)nc2[nH]1	> 100 µM	> 100 µM	> 100 µM	> 100 µM	> 100 µM	> 100 µM	> 100 µM	> 100 µM	> 100 µM	–	–	–	–	> 100 µM	–	–	–	–	–	–
O=[N+]([O-])c1ccc(Cl)cc1N/N=C/c1ccnc2ccccc12	> 100 µM	> 100 µM	> 100 µM	> 100 µM	> 100 µM	> 100 µM	> 100 µM	> 100 µM	> 100 µM	–	–	–	–	> 100 µM	–	–	–	–	–	–
O=C(Oc1ccc(Cl)cc1)c1ccccc1Nc1ccnc(C(F)(F)F)c1	9.75 µM	33.1 µM	> 100 µM	8.55 µM	23.1 µM	8.28 µM	63.2 µM	24.4 µM	4.67 µM	10800 nM	2820 nM	2870 nM	2320 nM	8.44 µM	2710 nM	15.3 µM	8.94 µM	17000 nM	4510 nM	2610 nM
CCN(Cc1ccc(F)cc1)c1cc(Cl)c(CO)c(Cl)c1	32.5 µM	29.2 µM	17.9 µM	28.8 µM	–	42.9 µM	24.7 µM	20.4 µM	32.1 µM	14900 nM	13000 nM	10700 nM	13500 nM	17.9 µM	16000 nM	4.08 µM	–	11300 nM	6560 nM	4980 nM
